According to a melting point compilation (Tetko et al.; mined from patent text by program, amines drawn as free bases though some values may be those of a salt):

SMILES | melting point [°C]
CCOc1ccc(-c2c(C(=O)OC)c(C(=O)OC)c(O)c3cc(OC)c(OC)c(OC)c23)cc1OC | 159
CCOC(=O)C(=CO)CCN1CCC(C2(c3ccc(F)cc3)OCCO2)CC1 | 117
Cc1c(OCC(F)(F)F)ccnc1CSc1nc2ccccc2n1NCC(C)C | 82 to 83
CCOC(=O)N(C)NC1=Nc2sc(CC)cc2C(c2ccccc2Cl)=NC1 | 172 to 174
COc1c(N2CC(C)[C@@](N)(CF)C2)c(F)cc2c(=O)c(C(=O)O)cn([C@@H]3C[C@@H]3F)c12 (stereo partly specified) | 167 to 169
C[C@H](N)c1nc2c(C(F)(F)F)cccc2c(O)c1C(=O)Nc1nccs1 | 270
CC(C)(C)OC(=O)Nc1cccc(C(=O)OCC#N)c1 | 118 to 119
CC(=O)Nc1nc(CCc2ccc(NC(NC(=O)OC(C)(C)C)NC(=O)OC(C)(C)C)cc2)c(Cl)s1 | 220 to 221
COC(=O)C(O)C(CC(C)C)NC(=O)C(CC(C)C)NC(=O)C(CC(=O)N1CCOCC1)Cc1cccc2ccccc12 (mixture of isomers) | 69 to 70
CCCCCCCCCCCCCCC(=O)c1ccc2cc(O)c(O)cc2c1 | 133 to 134
CC(C)c1nc2c(N)nc(-c3ccncc3)nc2[nH]1 | 269 to 272
Cc1ccc(S(=O)(=O)c2ncc(I)cn2)cc1 | 138 to 139
FC(F)(F)C1(c2ccccc2)CCNCC1 | 87.6
CC1(C)CC(=O)c2cc[nH]c2C1 | 177 to 178
O=CC(=Cc1ccc(O)cc1)C(C=O)=Cc1ccc(O)cc1 | 244 to 246
Cc1nn(-c2c(Cl)cc(C(F)(F)F)cc2Cl)nc1C=NC(C#N)=C(N)C#N | 238 to 239
O=C(O)c1c[nH]c(Sc2cc(Cl)cc(Cl)c2)c1 | 169 to 172
Cc1ccc(C(=O)NC(NC(=S)Nc2cccnc2)C(C)(C)C)cc1 (stereo unspecified) | 168 to 169
Cc1c(C(=O)Nc2ccc(OCC(C)(C)C)c(C#N)c2)cnn1C1CCCCC1 | 126 to 128
CCOc1cc(Cc2cnc(N)nc2N)cc2c1OC(C)(C)C=C2 | 184 to 186
CCCC(C=NNC(=O)OCC)c1ccc(Cl)cc1Cl (stereo unspecified) | 127 to 129
CC12CCC(OC(=O)C(F)(F)F)CC1=CCC1=C2CCC2(C)C(=O)CCC12 (stereo unspecified) | 109 to 115

SMILES | melting point [°C]
CCCCCCCCCCC(Oc1ccc(C2=CCCCCCC2)cc1)C(=O)O (stereo unspecified) | 45 to 48
O=[N+]([O-])c1ccc2c(c1)CCN(C[C@H](O)C(F)(F)F)CC2 | 82 to 85
CC(=CC#N)NCc1ccc(Cl)nc1 | 95 to 98
CC(C)(C)OC(=O)N1CCC(=O)N1c1ccccc1 | 150
CN1Cc2cc(F)ccc2-n2c(c(C#CC(C)(O)C3CC3)[nH]c2=O)C1 (stereo unspecified) | 191 to 192
COC(=O)c1cc(OC)c(CNC(C)=O)c(OC)c1 | 184
CCCOc1cc(-n2c(=O)cc(C(F)(F)F)n(C)c2=O)c(F)cc1Br | 119
CC1(Cl)C(=O)N(c2cc(Cl)cc(Cl)c2)N=C1Cl (stereo unspecified) | 77
CCOC(=O)C(=CNc1cnsn1)C(=O)c1cc(F)c(F)cc1F | 117 to 118
c1cnc2c(c1)-c1nc(NC3CCNCC3)ncc1-c1ccncc1N2 | 189 to 191
Cc1cccc([N+](=O)[O-])c1-c1c(C)cccc1[N+](=O)[O-] | 107 to 108
Cc1cc(N(C)C)nc(N)n1 | 172 to 174
NNC1NS(=O)(=O)c2ccccc21 (stereo unspecified) | 249
CCNC(=O)c1cc(Cl)ccc1Br | 98 to 99
Cc1cc(-c2c(F)cc3c(=O)c(C(=O)O)cn4c3c2S(=O)CC4C)cc(C)n1 (stereo unspecified) | 294 to 295
NCc1noc(-c2ncn3c2[C@@H]2CCN2C(=O)c2c(Cl)cccc2-3)n1 | 206 to 208
CCOCc1nc2c(N)nc3ccccc3c2n1CCCCCS(=O)(=O)N(C)C | 138 to 142
CC(C)C1(C)N=C(c2ncc(O)cc2C(=O)O)NC1=O (stereo unspecified) | 255 to 257
Oc1cc(O)c2c(-c3cc(F)cc(F)c3)c(Br)oc2c1 | 121 to 122
CN(C)C(=O)NS(=O)(=O)c1ccccc1OC(Cl)=CCl | 218 to 220
O=c1c2[nH]cnc2n(CC2CCCCC2)c(=O)n1CC1CC1 | 181

The remaining lines, values ahead:

melting point [°C] | SMILES
180 | CN1C(=O)C(c2c[nH]c3ncccc23)=C(c2cn(C(=O)OC(C)(C)C)c3ccccc23)C1=O
208 to 209 | Cc1cccc(C)c1C(=O)NCC(=O)N1c2ccccc2N(Cc2ccccc2)C(=O)[C@H]2CCC[C@H]21 (relative stereo)
110 | O=C(NC/C=C/c1ccccc1)c1cccs1
190 to 191 | N#Cc1cc(C(=O)NNC(=O)c2occ(-c3ccc(Cl)cc3)c2-c2ccc(Cl)cc2)ccc1O
188 to 189 | O=C1c2ccccc2-c2ccc(-c3nc(CCl)co3)cc21
235 to 236 | O=C(OC(=O)c1cc2cc(O)ccc2s1)c1ccccc1
219 | O=C(O)COc1ccc(NC(=O)c2csc(NC(=O)NCc3ccccc3)n2)cc1C(=O)O
278 to 280 | O=C1c2ccccc2N(c2ccc(F)cc2)C2=NCCN12
82 | CCN(CC)C(=O)Nc1ccc(S(=O)(=O)N2C(=O)C(CCCN(C)C)(c3ccccc3F)c3cc(C)c(OC)cc32)cc1F (stereo unspecified)
212 to 214 | COc1cc2c(cc1OC(C)=O)C1Cc3ccc(OC)c(OC(C)=O)c3CN1CC2 (stereo unspecified)
202 to 204 | Cc1c(-c2ccccc2)c(N2CC[C@](C)(N)C2)c2oc(C(=O)N(C)C)nc2c1C#N
164 to 170 | Cc1nc2c(N)nc3ccccc3c2n1CCCCNC(=O)c1ccccc1
124 to 127 | CN(C)C1=Nc2cc(Br)ccc2N2CCc3cccc1c32
214 to 215 | NC(=O)c1cccc2c1C1(COc3cc4c(cc31)OCCO4)CN2Cc1ccccn1 (stereo unspecified)
84.5 to 86 | ClC(=NNc1cc(Cl)ccc1Cl)c1ccccc1
143 to 144 | O=c1cc2c(nn1-c1ccc(Cl)cc1)-c1cc(Br)sc1CCC2
187 to 189 | CN(c1cc2occc(=O)c2cc1Oc1ccccc1)S(C)(=O)=O
160 | Cc1c(C(=O)NN2CCCCC2)nn(-c2ccc(Cl)cc2Cl)c1-c1ccc(OS(=O)(=O)CCC(F)(F)F)cc1
50 to 52 | C=C(COc1ccccc1C=O)C(=O)OC
199 to 202 | COc1ccc2[nH]c(SCc3nccc(N4CCCC4)n3)nc2c1
198 to 199 | COc1cc(-n2cnc3cc(-c4ccc(Cl)cc4)sc3c2=O)ccc1OCC1(O)CC(F)(F)C1
140 to 142 | CCCNC(=O)CC=Cc1ccc2c(c1)c(Cc1ccc(C(=O)OC)cc1OC)cn2CCC
228 to 229 | Cn1c(=O)sc2nc(-c3ccccc3)cn2c1=O
135 to 143 | CCn1cc(C(=O)O)c(=O)c2cc(F)c(N3CCN(C(=O)OC(OC(=O)c4ccccc4)C(=O)OC(C)C)CC3)cc21 (stereo unspecified)
122 | NC(=O)c1ccc2ccccc2c1-c1c(P(=O)(c2ccccc2)c2ccccc2)ccc2ccccc12
263 to 265 | Fc1ccc2c(c1)NCc1c(-c3noc(C4CC4)n3)ncn1-2
177 | CC(C)C(C)(NC(c1ccccc1)c1ccccc1)P(O)O (stereo unspecified)

melting point [°C] | SMILES
91 to 93 | CC(C)Oc1ccc(Cl)c2c(=O)c3ccccc3sc12
193 to 196 | CCOc1ccc(-c2ccc3c(c2)C=C(C(=O)Nc2ccc(CN(C)C4CCOCC4)cc2)CCN3C=O)cc1F
211 to 215 | N#CC1c2ccccc2Oc2cc(O)cc(O)c21 (stereo unspecified)
202 to 203 | O=C(CC(C(=O)O)c1ccccc1)Nc1cccc(/C=C/c2nc(C3CCC3)cs2)c1 (stereo unspecified)
> 300 | O=C(O)c1c2c(nc3ccc(F)cc13)-c1ccc(-c3ccc(F)cc3)cc1CC2
189 to 190 | CCCC(=O)c1ccc(C(CC(=O)Nc2cc(C(N)=O)ccc2C(C)(C)C)CC(C)C)c(OC)c1 (stereo unspecified)
159 to 162 | N#Cc1ccc(Cn2cncn2)cc1-c1ccc(OS(N)(=O)=O)cc1
186 to 189 | COC(=O)c1ccc(Cc2c(Cl)n(C)c3cc(Cl)c(CCNC(=O)N(C)C)cc23)c(OC)c1
197 to 200 | Nc1ncc(C#Cc2ccc(Cl)cc2)c(NCCO)n1
86 to 88 | COC(=O)c1cnnn1C1OC(COC(=O)c2ccccc2)C(OC(=O)c2ccccc2)C1OC(=O)c1ccccc1 (stereo unspecified)
226 | CCN1CCc2ccc(Nc3ncc(C(F)(F)F)c(Nc4ccccc4C(=O)NC)n3)cc2CC1
189 | N=C(Nc1nc(-c2ccccn2)nc2ccccc12)C(F)(F)F
117 to 118 | COc1cc2oc(=O)c(CCN3CCC(c4ccccc4)CC3)c(C)c2c(OC)c1OC
144 to 145 | O=S(=O)(c1ccccc1)n1c(Cc2cc3ccccc3n2S(=O)(=O)c2ccccc2)cc2ccccc21
290 | O=c1c2ccccc2nc2n1CCc1c-2[nH]c2ccc(F)cc12
199 to 201 | Cc1ccc(-c2nc(-c3ccc(C)cc3C)nc(-c3ccc(O)cc3O)n2)c(C)c1
296 to 297 | CSc1ccc(Cc2cccc(-c3c(O)c4ccc(Cl)cc4[nH]c3=O)c2)cc1
170 to 172 | CN(c1cccc2cc(C3=NCC(CC(=O)O)S3)[nH]c12)S(=O)(=O)c1ccccc1C(F)(F)F (stereo unspecified)
167 to 170 | COc1cc(C=C2CCN(C(=O)NOCc3ccccc3)C2=O)cc(OC)c1O
161 to 162 | CCOC(=O)Cc1csc(-c2cc3cccc(NS(=O)(=O)c4cccs4)c3[nH]2)n1
180 to 181 | Nc1c(-c2ccc(C(F)(F)F)cc2F)nnn1Cc1ccc(S(N)(=O)=O)cc1
155 to 157 | COc1ccc(NCC2CCn3c(nc4ccccc43)S2)cc1 (stereo unspecified)
112 to 114 | COc1ccc(CN2C(=O)C3(COc4cc(O)c(C#N)cc43)c3ccccc32)cc1 (stereo unspecified)
140 to 141 | Cc1cc(SCc2ccc(-c3ccc(C(F)(F)F)cc3)cc2)ccc1OCC(=O)O
139 to 142 | CS(=O)(=O)c1ccc(-n2nc(C(F)(F)F)cc2-c2ccc(-c3ccco3)cc2)cc1Cl
95 to 96 | N#CCC(=O)c1cccc(Oc2ccccc2)c1
